The values below come from patent US11912703B2, “6-azaindole compounds” (BRISTOL-MYERS SQUIBB COMPANY, priority 2017, dated 2024).

The target of test [1] is human TLR8 (Homo sapiens (Human), UniProt Q9NR97). Description: TLR8 inhibition reporter assay (HEK-Blue SEAP).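 Note: SEAP driven by IFN-β minimal promoter with five NF-κB and AP-1 sites, compounds tested 0.05 nM to 50 µM, 22 h incubation, inhibition relative to agonist plus DMSO wells.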
Test [2] has as its target human TLR7 (Homo sapiens (Human), UniProt Q9NYK1). Description: TLR7 inhibition reporter assay (HEK-Blue SEAP). Type of test: cell-based. The following applies: HEK-Blue cells overexpressing human TLR7, gardiquimod 7.5 μM stimulation.
In test [3] the target is human TLR9 (Homo sapiens (Human), UniProt Q9NR96). Nature of the test: TLR9 inhibition reporter assay (HEK-Blue SEAP). (In general: Reporter assays use an easily measured gene product as a stand-in for the process of interest.);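 note: SEAP driven by IFN-β minimal promoter carrying five NF-κB and AP-1 sites, 22 h at 37 °C, compounds 0.05 nM–50 µM, inhibition scaled between agonist-plus-DMSO and reference-inhibitor wells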
Where [4] appears, read: read-out: TLR8 IC50; HEK-Blue cells overexpressing human TLR8, R848 15.9 μM stimulation, SEAP reporter.
The mark [5] stands for this setting: read-out: TLR9 IC50; HEK-Blue cells overexpressing human TLR9, ODN2006 5 nM stimulation, SEAP reporter.
Setting [6] is: read-out: TLR8 IC50; HEK-Blue cells overexpressing human TLR8; R848 15.9 μM stimulation; SEAP reporter.
Where [7] appears, read: read-out: TLR9 IC50; HEK-Blue cells overexpressing human TLR9; ODN2006 5 nM stimulation; SEAP reporter.

Like-named read-outs stand apart in the source and are kept apart here. Bounds are passed on as bounds.

Chain of human TLR8 (Q9NR97 27-1041): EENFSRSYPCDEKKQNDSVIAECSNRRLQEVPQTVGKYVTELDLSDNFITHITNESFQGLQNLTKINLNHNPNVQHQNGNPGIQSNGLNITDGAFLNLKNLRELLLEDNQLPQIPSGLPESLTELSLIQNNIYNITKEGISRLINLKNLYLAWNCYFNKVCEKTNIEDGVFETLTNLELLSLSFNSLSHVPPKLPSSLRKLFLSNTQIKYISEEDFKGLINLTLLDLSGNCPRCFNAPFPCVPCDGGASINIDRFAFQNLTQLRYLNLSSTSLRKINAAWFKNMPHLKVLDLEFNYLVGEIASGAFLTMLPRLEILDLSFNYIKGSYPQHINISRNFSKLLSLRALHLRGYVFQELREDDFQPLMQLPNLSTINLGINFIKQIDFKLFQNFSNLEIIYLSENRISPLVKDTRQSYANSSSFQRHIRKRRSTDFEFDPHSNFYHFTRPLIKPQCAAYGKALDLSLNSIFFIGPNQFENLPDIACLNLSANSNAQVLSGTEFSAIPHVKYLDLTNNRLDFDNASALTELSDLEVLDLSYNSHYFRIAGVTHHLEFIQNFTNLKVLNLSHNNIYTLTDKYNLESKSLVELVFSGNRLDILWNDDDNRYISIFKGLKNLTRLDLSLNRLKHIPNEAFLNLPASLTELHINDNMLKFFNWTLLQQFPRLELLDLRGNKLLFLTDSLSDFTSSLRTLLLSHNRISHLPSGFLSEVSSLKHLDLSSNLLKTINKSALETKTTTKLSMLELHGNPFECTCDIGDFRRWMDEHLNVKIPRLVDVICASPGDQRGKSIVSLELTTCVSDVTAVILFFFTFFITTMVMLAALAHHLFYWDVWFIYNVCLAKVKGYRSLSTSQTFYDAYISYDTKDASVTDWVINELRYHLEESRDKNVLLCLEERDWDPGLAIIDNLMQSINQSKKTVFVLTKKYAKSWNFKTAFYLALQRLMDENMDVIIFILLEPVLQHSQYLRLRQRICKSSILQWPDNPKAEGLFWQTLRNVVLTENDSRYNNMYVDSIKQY
Chain of human TLR9 (Q9NR96 26-1032): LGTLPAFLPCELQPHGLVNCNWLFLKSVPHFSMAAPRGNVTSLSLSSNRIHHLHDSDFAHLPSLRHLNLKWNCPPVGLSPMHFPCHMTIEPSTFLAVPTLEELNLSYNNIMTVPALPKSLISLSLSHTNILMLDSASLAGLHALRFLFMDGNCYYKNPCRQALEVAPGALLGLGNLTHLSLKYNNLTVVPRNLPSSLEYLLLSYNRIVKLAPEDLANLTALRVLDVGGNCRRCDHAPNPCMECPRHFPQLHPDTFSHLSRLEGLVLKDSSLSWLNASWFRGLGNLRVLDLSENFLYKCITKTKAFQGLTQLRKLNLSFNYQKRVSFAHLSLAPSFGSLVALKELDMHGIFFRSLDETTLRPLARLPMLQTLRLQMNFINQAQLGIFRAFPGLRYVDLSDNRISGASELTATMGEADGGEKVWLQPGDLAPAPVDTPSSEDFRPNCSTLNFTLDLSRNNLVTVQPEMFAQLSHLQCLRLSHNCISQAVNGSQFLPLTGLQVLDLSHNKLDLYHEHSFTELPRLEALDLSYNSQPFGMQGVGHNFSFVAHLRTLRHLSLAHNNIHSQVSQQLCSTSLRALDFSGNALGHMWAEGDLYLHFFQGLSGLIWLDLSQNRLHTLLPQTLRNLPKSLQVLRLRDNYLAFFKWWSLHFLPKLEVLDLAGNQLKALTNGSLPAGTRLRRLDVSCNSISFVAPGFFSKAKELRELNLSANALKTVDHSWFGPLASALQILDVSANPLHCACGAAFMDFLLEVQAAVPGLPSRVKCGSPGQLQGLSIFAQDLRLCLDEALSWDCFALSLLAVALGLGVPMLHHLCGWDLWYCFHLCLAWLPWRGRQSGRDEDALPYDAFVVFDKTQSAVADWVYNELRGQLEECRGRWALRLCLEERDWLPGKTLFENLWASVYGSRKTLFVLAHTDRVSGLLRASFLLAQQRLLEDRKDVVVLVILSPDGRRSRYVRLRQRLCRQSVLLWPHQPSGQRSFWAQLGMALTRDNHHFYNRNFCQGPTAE
Chain of human TLR7 (Q9NYK1 27-1049): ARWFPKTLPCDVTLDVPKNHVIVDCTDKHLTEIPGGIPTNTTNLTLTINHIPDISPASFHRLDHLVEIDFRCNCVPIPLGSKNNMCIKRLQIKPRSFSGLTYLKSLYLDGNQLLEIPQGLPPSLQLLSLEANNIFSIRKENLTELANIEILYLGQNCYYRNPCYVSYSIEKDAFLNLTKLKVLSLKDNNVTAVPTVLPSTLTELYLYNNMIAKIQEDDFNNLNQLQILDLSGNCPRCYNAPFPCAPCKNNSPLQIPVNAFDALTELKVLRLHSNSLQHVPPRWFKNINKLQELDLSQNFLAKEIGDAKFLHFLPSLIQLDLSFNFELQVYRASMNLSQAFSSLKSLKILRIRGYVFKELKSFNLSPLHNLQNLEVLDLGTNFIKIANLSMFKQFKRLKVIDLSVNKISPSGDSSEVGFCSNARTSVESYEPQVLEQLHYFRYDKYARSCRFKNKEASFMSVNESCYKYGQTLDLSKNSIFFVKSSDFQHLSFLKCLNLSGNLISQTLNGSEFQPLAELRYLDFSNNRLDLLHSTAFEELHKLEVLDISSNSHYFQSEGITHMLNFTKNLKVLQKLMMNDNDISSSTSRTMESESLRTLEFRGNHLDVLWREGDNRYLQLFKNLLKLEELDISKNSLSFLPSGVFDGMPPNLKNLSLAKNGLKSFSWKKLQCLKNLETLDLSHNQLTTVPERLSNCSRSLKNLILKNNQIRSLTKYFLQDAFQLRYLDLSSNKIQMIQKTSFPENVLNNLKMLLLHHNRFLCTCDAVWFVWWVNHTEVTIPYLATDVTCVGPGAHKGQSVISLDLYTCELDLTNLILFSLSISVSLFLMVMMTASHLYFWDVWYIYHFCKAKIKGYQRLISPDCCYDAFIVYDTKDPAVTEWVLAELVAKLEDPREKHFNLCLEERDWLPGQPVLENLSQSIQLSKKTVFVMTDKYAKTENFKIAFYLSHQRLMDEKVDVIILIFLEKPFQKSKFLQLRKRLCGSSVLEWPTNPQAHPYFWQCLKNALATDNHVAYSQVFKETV

As for `COc1cc(-c2[nH]c3cnc(C4CCC(NC5CCOCC5)CC4)c(C)c3c2C(C)C)cn2ncnc12` (stereo not drawn) [Example 241], the IC50 in test [1] (setting [4]) is 11 nM; in test [2], 3.5 nM; in test [3] (setting [5]), 285 nM.

Take `CCN(C)C1CCC(c2ncc3[nH]c(-c4cn5ncnc5c(C)c4C)c(C(C)C)c3c2F)CC1` (stereo not drawn) [Example 135]: the IC50 was determined as 0.48 nM in test [1] (setting [4]), 0.24 nM in test [2] and 6500 nM in test [3] (setting [5]).

With `COc1cc(-c2[nH]c3cnc(C4CCNCC4)c(C)c3c2C(C)C)cn2ncnc12` [Example 1, 6-(3-isopropyl-4-methyl-5-(piperidin-4-yl)-1H-pyrrolo[2,3-c]pyridin-2-yl)-8-methoxy-[1,2,4] triazolo[1,5-a]pyridine], the values for the IC50 in test [1] (setting [4]), in test [2] and in test [3] (setting [5]) were 89 nM, 4.7 nM and 550 nM, respectively.

Regarding `Cc1c(-c2[nH]c3cnc(C4CCC(NC(C)C)CC4)c(C)c3c2C(C)C)cn2ncnc2c1C` (stereo not drawn) [Example 277], the results for the IC50 in test [1] (setting [4]), in test [2] and in test [3] (setting [5]) were 13 nM, 5.5 nM and 265 nM, respectively.

For the compound `Cc1c(-c2[nH]c3cnc(N4CCN(C5COC5)CC4)c(C)c3c2C(C)C)cn2ncnc2c1C` [Example 417, 6-(3-isopropyl-4-methyl-5-(4-(oxetan-3-yl)piperazin-1-yl)-1H-pyrrolo[2,3-c]pyridin-2-yl)-7,8-dimethyl-[1,2,4]triazolo[1,5-a]pyridine], the values for the half-inhibitory concentration (IC50) in test [1] (setting [4]), in test [2] and in test [3] (setting [5]) were 13 nM, 16 nM and over 50000 nM, respectively.

For the compound `COc1cc(-c2[nH]c3cnc(C4CCC(NCC(C)(C)C)CC4)c(F)c3c2C(C)C)cn2ncnc12` (stereo not drawn) [Example 162], the figures for the IC50 in test [1] (setting [4]), in test [2] and in test [3] (setting [5]) were 1 nM, 1.3 nM and 2150 nM, respectively.

For the compound `COc1cc(-c2[nH]c3cnc(N4CCC(NCC5(C)COC5)CC4)c(F)c3c2C(C)C)cn2ncnc12` [Example 67], the figures for the IC50 in test [1] (setting [4]), in test [2] and in test [3] (setting [5]) were 11 nM, 9.1 nM and 5800 nM, respectively.

As for `COCCN1CCN(c2ncc3[nH]c(-c4cc(OC)c5ncnn5c4)c(C(C)C)c3c2F)CC1` [Example 361], the concentration for half-maximal inhibition (IC50) is 0.76 nM in test [1] (setting [4]), 3.8 nM in test [2] and 4850 nM in test [3] (setting [5]).

Take `COc1cc(-c2[nH]c3cnc(N4CCN(CC(N)=O)C[C@H]4C)c(F)c3c2C(C)C)cn2ncnc12` [Example 447]: the IC50 in test [1] (setting [4]) was 32 nM; in test [2] it was 11 nM; in test [3] (setting [5]) it was over 50000 nM.

Take `Cc1cc(-c2[nH]c3cnc(C4CCC(N5CCC5)CC4)c(F)c3c2C(C)C)cn2ncnc12` (stereo not drawn) [Example 262]: the IC50 in test [1] (setting [4]) came to 4.2 nM; in test [2] it was 1.3 nM; in test [3] (setting [5]) it was 1330 nM.

In the case of `CCCN1CC2(C1)CN(c1ncc3[nH]c(-c4cc(OC)c5ncnn5c4)c(C(C)C)c3c1F)C2` [Example 380], the IC50 stood at 7.8 nM in test [1] (setting [4]), 5.6 nM in test [2] and 1480 nM in test [3] (setting [5]).

As to `COc1cc(-c2[nH]c3cnc(C4CCC(NC5COC5)CC4)cc3c2C(C)C)cn2ncnc12` (stereo not drawn) [Example 330], the IC50 in test [1] (setting [4]) came to 5.5 nM; in test [2] it was 1.1 nM; in test [3] (setting [5]) it was 255 nM.

Regarding `Cc1c(-c2[nH]c3cnc(C4CCC(NCC5(C)COC5)CC4)c(C)c3c2C(C)C)cn2ncnc2c1C` (stereo not drawn) [Example 203], the IC50 turned out to be 9.3 nM in test [1] (setting [4]), 27 nM in test [2] and 513 nM in test [3] (setting [5]).

On to `Cc1c(N2CCC(N3CC4(COC4)C3)CC2)ncc2[nH]c(-c3cc(C)c4ncnn4c3)c(C(C)C)c12` [Example 53], for which the values for the IC50 in test [1] (setting [4]), in test [2] and in test [3] (setting [5]) were 2 nM, 0.5 nM and 1390 nM, respectively.

For the compound `Cc1c(-c2[nH]c3cnc(C4CCC(NCC(C)(C)C)CC4)c(C)c3c2C(C)C)cn2ncnc2c1C` (stereo not drawn) [Example 58], the IC50 in test [1] (setting [4]) was 23 nM; in test [2], 60 nM; in test [3] (setting [5]) it was 692 nM.

Consider `CNC(=O)CN1CCN(c2ncc3[nH]c(-c4cc(OC)c5ncnn5c4)c(C(C)C)c3c2C)CC1` [Example 40], for which the IC50 was 11 nM in test [1] (setting [4]), 9.9 nM in test [2] and 8310 nM in test [3] (setting [5]).

Take `Cc1c(-c2[nH]c3cnc(N4CCN(C(=O)CN(C)C)C[C@H]4C)c(F)c3c2C(C)C)cn2ncnc2c1C` [Example 470]: the IC50 stood at 0.49 nM in test [1] (setting [6]), 4.9 nM in test [2] and 15500 nM in test [3] (setting [7]).

As to `Cc1c(N2CCC(NCC3(C)COC3)CC2)ncc2[nH]c(-c3cc(C)c4ncnn4c3)c(C(C)C)c12` [Example 170], the concentration for half-maximal inhibition (IC50) in test [1] (setting [4]) was 0.71 nM; in test [2] it was 0.42 nM; in test [3] (setting [5]), 2290 nM.

As for `CNC1CCN(c2ncc3[nH]c(-c4cc(OC)c5ncnn5c4)c(C(C)C)c3c2F)CC1` [Example 191], the IC50 was determined as 1.1 nM in test [1] (setting [4]), 0.91 nM in test [2] and 3500 nM in test [3] (setting [5]).

On to `COc1cc(-c2[nH]c3cnc(N4CCC(NC(C)C)CC4)c(F)c3c2C(C)C)cn2ncnc12` [Example 157], for which the IC50 in test [1] (setting [4]) amounted to 0.51 nM; in test [2], 0.8 nM; in test [3] (setting [5]), 4180 nM.

For `Cc1c(-c2[nH]c3cnc(N4CCN(CC(=O)N(C)C)CC4)c(C)c3c2C(C)C)cn2ncnc2c1C` [Example 352, 2-(4-(2-(7,8-dimethyl-[1,2,4]triazolo[1,5-a]pyridin-6-yl)-3-isopropyl-4-methyl-1H-pyrrolo[2,3-c]pyridin-5-yl)piperazin-1-yl)-N,N-dimethylacetamide], the half-maximal inhibitory concentration (IC50) in test [1] (setting [4]) was 0.73 nM; in test [2], 14 nM; in test [3] (setting [5]), 19800 nM.

Regarding `COc1cc(-c2[nH]c3cnc(N4CCN(CC5CCOCC5)CC4)c(F)c3c2C(C)C)cn2ncnc12` [Example 383], the IC50 in test [1] (setting [4]) came out at 0.31 nM; in test [2] it was 2.7 nM; in test [3] (setting [5]), 5390 nM.

On to `COc1cc(-c2[nH]c3cnc(C4CCC(NCC(C)(C)F)CC4)c(C)c3c2C(C)C)cn2ncnc12` (stereo not drawn) [Example 271], for which the IC50 in test [1] (setting [4]) worked out at 4.2 nM; in test [2], 1.6 nM; in test [3] (setting [5]) it was 333 nM.

In the case of `COc1cc(-c2[nH]c3cnc(C4CCN(CC(=O)N(C)C)CC4)c(C)c3c2C(C)C)cn2ncnc12` [Example 24], the values for the IC50 in test [1] (setting [4]), in test [2] and in test [3] (setting [5]) were 39 nM, 9.7 nM and 279 nM, respectively.

Regarding `COc1cc(-c2[nH]c3cnc(C4CCC(NC5COC5)CC4)c(C)c3c2C(C)C)cn2ncnc12` (stereo not drawn) [Example 243], the IC50 in test [1] (setting [4]) came to 4.8 nM; in test [2], 0.79 nM; in test [3] (setting [5]), 430 nM.

Regarding `Cc1cc(-c2[nH]c3cnc(N4CCC(N(C)C)CC4)c(F)c3c2C(C)C)cn2ncnc12` [Example 256], the IC50 in test [1] (setting [4]) amounted to 1.2 nM; in test [2] it was 1.4 nM; in test [3] (setting [5]), 15400 nM.

Take `CNC(=O)CN1CCC(c2cc3c(C(C)C)c(-c4cc(OC)c5ncnn5c4)[nH]c3cn2)CC1` [Example 292]: the IC50 in test [1] (setting [4]) was found to be 47 nM; in test [2], 7 nM; in test [3] (setting [5]), 303 nM.

`Cc1cc(-c2[nH]c3cnc(C4CCC(NC(C)C)CC4)c(F)c3c2C(C)C)cn2ncnc12` (stereo not drawn) [Example 198]: the IC50 is 2.6 nM in test [1] (setting [4]), 2.4 nM in test [2] and 1150 nM in test [3] (setting [5]).

For the compound `COc1cc(-c2[nH]c3cnc(N4CCN(CCS(C)(=O)=O)C[C@H]4C)c(F)c3c2C(C)C)cn2ncnc12` [Example 450], the half-inhibitory concentration (IC50) in test [1] (setting [6]) is 39 nM; in test [2], 12 nM; in test [3] (setting [7]), over 50000 nM.

Regarding `Cc1c(-c2[nH]c3cnc(C4CCC(NCC5(C)COC5)CC4)c(F)c3c2C(C)C)cn2ncnc2c1C` (stereo not drawn) [Example 172], the 50% inhibitory concentration (IC50) in test [1] (setting [4]) worked out at 0.75 nM; in test [2] it was 4.4 nM; in test [3] (setting [5]) it was 2650 nM.

`Cc1c(-c2[nH]c3cnc(N4CCN(C5CCOCC5)C[C@H]4C)c(F)c3c2C(C)C)cn2ncnc2c1C` [Example 456]: the IC50 in test [1] (setting [6]) was found to be 1.6 nM; in test [2], 5.7 nM; in test [3] (setting [7]) it was 16300 nM.

For the compound `COc1cc(-c2[nH]c3cnc(C4CCC(N5CCC5)CC4)c(F)c3c2C(C)C)cn2ncnc12` (stereo not drawn) [Example 75], the values for the IC50 in test [1] (setting [4]), in test [2] and in test [3] (setting [5]) were 5.6 nM, 2.5 nM and 447 nM, respectively.

Consider `Cc1c(-c2[nH]c3cnc(N4CCN(CCS(C)(=O)=O)C[C@H]4C)c(F)c3c2C(C)C)cn2ncnc2c1C` [Example 463], for which the IC50 in test [1] (setting [6]) came to 5.2 nM; in test [2], 9 nM; in test [3] (setting [7]), 38800 nM.

For the compound `COc1cc(-c2[nH]c3cnc(C4CCC(NCC(C)(C)OC)C4)cc3c2C(C)C)cn2ncnc12` (stereo not drawn) [Example 211], the results for the IC50 in test [1] (setting [4]), in test [2] and in test [3] (setting [5]) were 44 nM, 41 nM and 2250 nM, respectively.

Turning to `CCN(C)C1CCN(c2ncc3[nH]c(-c4cn5ncnc5c(C)c4C)c(C(C)C)c3c2C)CC1` [Example 55], the results for the IC50 in test [1] (setting [4]), in test [2] and in test [3] (setting [5]) were 1.3 nM, 1.3 nM and 769 nM, respectively.

Consider `Cc1c(-c2[nH]c3cnc(N4CCC(N(C)C(C)C)CC4)c(F)c3c2C(C)C)cn2ncnc2c1C` [Example 52], for which the IC50 amounted to 0.42 nM in test [1] (setting [4]), 0.98 nM in test [2] and 1860 nM in test [3] (setting [5]).

With `COc1cc(-c2[nH]c3cnc(C4CCN(C5COC5)CC4)cc3c2C(C)C)cn2ncnc12` [Example 306], the IC50 stood at 16 nM in test [1] (setting [4]), 3.9 nM in test [2] and 786 nM in test [3] (setting [5]).

Regarding `COc1cc(-c2[nH]c3cnc(N4CCN(CC(=O)N(C)C)CC4)c(Cl)c3c2C(C)C)cn2ncnc12` [Example 305], the IC50 in test [1] (setting [4]) amounted to 1.4 nM; in test [2], 2.5 nM; in test [3] (setting [5]), 2830 nM.

As for `CCN(C)C1CCC(c2cc3c(C(C)C)c(-c4cc(OC)c5ncnn5c4)[nH]c3cn2)C1` (stereo not drawn) [Example 272], the IC50 in test [1] (setting [4]) was 22 nM; in test [2], 7 nM; in test [3] (setting [5]) it was 391 nM.

As a reminder, the IC50 is the concentration that inhibits the measured activity by half.
